# Measurements published in patent publication EP0515927A2, “Pradimicin antibiotics” (priority 1991, dated 1992).
# Read-outs that look alike come from different tables or passages of the source.
# Key:
# Vero cells = conditions: HSV-Vero cell, (TD50: 50% cytotoxicity without virus)
# [1] = test system: herpes simplex virus type I (HSV-1); conditions: 72 h
# C. albicans A9540 = assay: In vivo efficacy against C. albicans A9540 systemic infection in mice; parameters: species or system male ICR mice; conditions: single i.v. injection immediately after i.v. challenge; survivors on 20th day
# Procedure: The in vivo efficacy of pradimicins was evaluated against C. albicans A9540 systemic infection in male ICR mice (20-24 g body weight). The pathogen was cultured for 18 hours at 28°C in YGP medium (yeast extract 0.2%, glucose 1.5%, peptone 0.5%, K2HP04 0.05% and MgS04 0.05%) and resuspended in saline. Mice were challenged intravenously with 10 times lethal dose of the pathogen. Immediately after the fungal challenge, groups of 5 mice received a single intravenous injection of pradimicin S or FS or N-methyl pradimicin S at various dose levels. Amphotericin B and Fluconazol were used as positive controls. The median protective dose (PDso) was determined from the number of surviving mice recorded on the 20th day after the fungal infection.
# various fungal organisms = assay: In vitro antifungal activity, agar dilution method, Yeast Morphology agar with 1/15 M phosphate buffer (pH 7.0); type: cell-based; conditions: summary in words (Table 7 is an image)
# Procedure: The in vitro antifungal activity of pradimicins was determined by a conventional agar dilution method using Yeast Morphology agar containing 1/15 M phosphate buffer (pH 7.0).
# influenza virus A = assay: In vitro antiviral activity, influenza virus A-MDCK cell system, dye-uptake assay (inhibition of viral cytopathic effect); type: cell-based; conditions: 50% inhibition of cytopathic effect, 72 hours
# [2] = test system: Madin Darby canine kidney (MDCK) cell; conditions: Influenza virus-MDCK cell, (TD50: 50% cytotoxicity without virus)
# [3] = Acute toxicity in mice after single i.v. administration; type: in vivo
# Procedure: The acute toxicity of pradimicins S and FS and N-methyl pradimicin S was determined in mice after single administration (i.v.).
# [4] = mouse, in vivo, iv, read-out: LD50
Compound,ID50 (Vero cells) [µg/mL],ID50 [1] [µg/mL],PD50 mg/kg (i.v.) (C. albicans A9540) [mg/kg],in vitro antifungal activity (various fungal organisms),ID50 (influenza virus A) [µg/mL],ID50 [2] [µg/mL],"LD50 [3, 4] [mg/kg]",LD50 [3] [mg/kg]
"Nc1nc2c(ncn2COCCO)c(=O)[nH]1 [Acyclovir, reference compound]",>100,0.09,–,–,–,–,–,–
"C[C@@H]1[C@H](O)[C@@H](C)/C=C/C=C/C=C/C=C/C=C/C=C/C=C/[C@H](O[C@@H]2O[C@H](C)[C@@H](O)[C@H](N)[C@@H]2O)C[C@@H]2O[C@](O)(C[C@@H](O)C[C@@H](O)[C@H](O)CC[C@@H](O)C[C@@H](O)CC(=O)O[C@H]1C)C[C@H](O)[C@H]2C(=O)O [Amphotericin B, reference compound]",–,–,0.31,–,–,–,–,–
"OC(Cn1cncn1)(Cn1cncn1)c1ccc(F)cc1F [Fluconazol, reference compound]",–,–,>50,–,–,–,–,–
"CN[C@@H]1[C@H](O[C@@H]2O[C@H](CO)[C@@H](O)[C@H](OS(=O)(=O)O)[C@H]2O)[C@@H](O)[C@H](O[C@H]2c3cc(C)c(C(=O)N[C@H](CO)C(=O)O)c(O)c3-c3c(cc4c(c3O)C(=O)c3cc(OC)cc(O)c3C4=O)[C@@H]2O)O[C@@H]1C [Pradimicin FS, pradimicin FS]",>100,>100,18,activity against various fungal organisms,82,>100,210,–
"CN[C@@H]1[C@H](O[C@@H]2O[C@H](CO)[C@@H](O)[C@H](OS(=O)(=O)O)[C@H]2O)[C@@H](O)[C@H](O[C@H]2c3cc(C)c(C(=O)N[C@H](C)C(=O)O)c(O)c3-c3c(cc4c(c3O)C(=O)c3cc(OC)cc(O)c3C4=O)[C@@H]2O)O[C@@H]1C [Pradimicin S, pradimicin S]",>100,>100,35,activity against various fungal organisms,22,>100,244,–
"NC(=O)c1ncn([C@@H]2O[C@H](CO)[C@@H](O)[C@H]2O)n1 [Ribavirin, reference compound]",–,–,–,–,9.5,–,–,–
N-methyl pradimicin S [BMY-29273],–,–,47,activity against various fungal organisms,–,–,–,≥ 424
